Measurements: patent US10968232B2 (Merck Sharp & Dohme Corp., priority 2016, dated 2021)

The compounds below were run against T1, human GPR40 (Homo sapiens, UniProt O14842) (assay: Inositol Phosphate Turnover (IP1) Assay). Conditions: HEK cells stably expressing human GPR40; CisBio IP-One kit; 60 minutes at 37 degrees; read-out: Human IP1 EC50.
T1 construct: expressed in transfected cells
Format: cell-based
Summary of the method: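 HEK cells stably expressing GPR40, plated 16 h, then exposed to compound in stimulation buffer for 60 min at 37 °C. IP1 accumulation read by HTRF IP-One detection after 60 min at RT.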

T1 sequence (O14842 whole entry): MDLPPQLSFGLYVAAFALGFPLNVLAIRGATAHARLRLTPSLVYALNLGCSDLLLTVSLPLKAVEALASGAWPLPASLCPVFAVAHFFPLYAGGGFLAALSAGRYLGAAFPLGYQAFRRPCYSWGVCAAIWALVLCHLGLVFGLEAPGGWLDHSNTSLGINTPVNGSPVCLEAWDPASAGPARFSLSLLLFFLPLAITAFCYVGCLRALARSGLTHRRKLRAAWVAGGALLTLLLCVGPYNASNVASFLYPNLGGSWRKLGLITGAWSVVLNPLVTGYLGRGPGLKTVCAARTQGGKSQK

SMILES	EC50
C[C@H](C(=O)O)[C@H](c1ccc2c(c1)OC1(CC2)CCN(c2ccnc(C(F)(F)F)c2)CC1)C1CC1 [Example 40, (2S,3R)-3-cyclopropyl-2-methyl-3-(1′-(2-(trifluoromethyl)pyridin-4-yl)spiro-[chroman-2,4′-piperidin]-7-yl)propanoic Acid]	167 nM
C[C@H](C(=O)O)[C@H](c1ccc2c(c1)OC1(CC2)CCN(c2ccc3c(C(F)(F)F)nn(C)c3c2)CC1)C1CC1 [Example 37, (2S,3R)-3-cyclopropyl-2-methyl-3-(1′-(1-methyl-3-(trifluoromethyl)-1H-indazol-6-yl)spiro[chroman-2,4′-piperidin]-7-yl)-propanoic acid]	683 nM
C[C@H](C(=O)O)[C@H](c1ccc2c(c1F)OC1(CC2)CCN([C@H](C)c2cc(C(F)(F)F)ccc2C(F)(F)F)CC1)C1CC1 [Example 6, (2S,3R)-3-(1′-((R)-1-(2,5-bis(trifluoromethyl)-phenyl)ethyl)-8-fluoro-spiro[chroman-2,4′-piperidin]-7-yl)-3-cyclo-propyl-2-methyl-propanoic acid]	12.1 nM
CC(c1cc(F)cc(F)c1Cl)N1CCC2(CCc3ccc([C@H](C4CC4)[C@H](C)C(=O)O)cc3O2)CC1 (single isomer, unassigned) [Example 18]	46.1 nM
CC(c1cc(OC(F)(F)F)ccc1F)N1CCC2(CCc3ccc([C@H](C4CC4)[C@H](C)C(=O)O)cc3O2)CC1 (mixture of isomers) [Example 29, (2S,3R)-3-cyclopropyl-3-(1′-((RS)-1-(2-fluoro-5-(trifluoromethoxy)phenyl)ethyl)spiro[chroman-2,4′-piperidin]-7-yl)-2-methylpropanoic acid]	115 nM
C[C@H](C(=O)O)[C@H](c1ccc2c(c1)OC1(CC2)CCN(S(=O)(=O)c2ccc(C(F)(F)F)cc2Cl)CC1)C1CC1 [Example 26, (2S,3R)-3-(1′-((2-chloro-4-(trifluoromethyl)-phenyl)sulfonyl)spiro [chroman-2,4′-piperidin]-7-yl)-3-cyclopropyl-2-methylpropanoic acid]	97.8 nM
CC(c1ncccc1C(F)(F)F)N1CCC2(CCc3ccc([C@H](C4CC4)[C@H](C)C(=O)O)cc3O2)CC1 (single isomer, unassigned) [Example 43, (2S,3R)-3-cyclopropyl-2-methyl-3-(1′-((S or R)-1-(3-(trifluoromethyl)-pyridin-2-yl)ethyl)spiro[chroman-2,4′-piperidin]-7-yl)propanoic Acid]	60.2 nM
CC(c1cc(C(F)(F)F)ccc1C1CC1)N1CCC2(CCc3ccc([C@H](C4CC4)[C@H](C)C(=O)O)cc3O2)CC1 (single isomer, unassigned) [Example 15, sodium (2S,3R)-3-cyclo-propyl-3-(1′-((S or R)-1-(2-cyclopropyl-5-(trifluoromethyl)phenyl)ethyl)spiro[chroman-2,4′-piperidin]-7-yl)-2-methylpropanoate]	5.9 nM
C[C@H](C(=O)O)[C@H](c1ccc2c(c1F)OC1(CC2)CCN(Cc2cc(C(F)(F)F)ccc2C(F)(F)F)CC1)C1CC1 [Example 8, (2S,3R)-3-(1′-(2,5-bis-(trifluoromethyl)benzyl)-8-fluoro-spiro[chroman-2,4′-piperidin]-7-yl)-3-cyclopropyl-2-methyl-propanoic acid]	20.6 nM
C[C@H](C(=O)O)[C@H](c1ccc2c(c1)OC1(CC2)CCN(c2cccc(C(F)(F)F)c2)CC1)C1CC1 [Example 41, (2S,3R)-3-cyclopropyl-2-methyl-3-(1′-(3-(trifluoromethyl)phenyl)spiro[chroman-2,4′-piperidin]-7-yl)propanoic acid]	12.9 nM
C[C@H](C(=O)O)[C@H](c1ccc2c(c1)OC1(CCCN([C@H](C)c3cc(C(F)(F)F)ccc3C(F)(F)F)CC1)CC2)C1CC1 (single isomer, unassigned) [Example 50, (2S,3R)-3-((S or R)-1-((R)-1-(2,5-bis (trifluoromethyl)phenyl)ethyl)spiro[azepane-4,2′-chroman]-7′-yl)-3-cyclopropyl-2-methylpropanoic acid]	1.39 nM
CC(c1cc(C(F)(F)F)cc(C(F)(F)F)c1)N1CCC2(CCc3ccc([C@H](C4CC4)[C@H](C)C(=O)O)cc3O2)CC1 (stereo partly drawn) [Example 54, (2S,3R)-3-(1′-(1-(3,5-bis(trifluoromethyl)phenyl)ethyl)spiro[chroman-2,4′-piperidin]-7-yl)-3-cyclopropyl-2-methylpropanoic Acid]	6.47 nM
CC(c1cc(C(F)(F)F)ccc1C1CC1)N1CCC2(CCc3ccc([C@H](C4CC4)[C@H](C)C(=O)O)c(F)c3O2)CC1 (single isomer, unassigned) [Example 11, sodium (2S,3R)-3-cyclopropyl-3-(1′-((R or S)-1-(2-cyclopropyl-5-(trifluoromethyl)-phenyl)ethyl)-8-fluorospiro[chroman-2,4′-piperidin]-7-yl)-2-methylpropanoate]	0.434 nM

Continued, values first:

EC50	SMILES
110 nM	Cc1noc(C)c1-c1ccc(OC(F)(F)F)c(C(C)N2CCC3(CCc4ccc([C@H](C5CC5)[C@H](C)C(=O)O)cc4O3)CC2)c1 (stereo partly drawn) [Example 121, (2S,3R)-3-cyclopropyl-3-(1′-(1-(5-(3,5-dimethylisoxazol-4-yl)-2-(trifluoro-methoxy)phenyl)ethyl)spiro [chroman-2,4′-piperidin]-7-yl)-2-methyl-propanoic acid]
2.44 nM	CC(c1cc(Cl)cc(Cl)c1OC(F)F)N1CCC2(CCc3ccc([C@H](C4CC4)[C@H](C)C(=O)O)cc3O2)CC1 (single isomer, unassigned) [Example 79, (2S,3R)-3-cyclopropyl-3-(1′-((R or S)-1-(3,5-dichloro-2-(difluoromethoxy)phenyl)-ethyl)spiro[chroman-2,4′-piperidin]-7-yl)-2-methylpropanoic Acid]
8.62 nM	C[C@H](C(=O)O)[C@H](c1ccc2c(c1)OC1(CC2)CC(N[C@H](C)c2cc(C(F)(F)F)ccc2C(F)(F)F)C1)C1CC1 (stereo partly drawn) [Example 91, (2S,3R)-3-(3′-((1-(2,5-bis(trifluoromethyl)phenyl)ethyl)amino)spiro[chroman-2,1′-cyclobutan]-7-yl)-3-cyclopropyl-2-methylpropanoic Acid]
386 nM	CC(c1cc(Cl)ccc1OCC(F)(F)F)N1CCC2(CCc3ccc([C@H](C4CC4)[C@H](C)C(=O)O)cc3O2)CC1 (single isomer, unassigned) [Example 62, (2S,3R)-3-(1′-((R or S)-1-(5-chloro-2-(2,2,2-trifluoroethoxy)phenyl)ethyl)spiro [chroman-2,4′-piperidin]-7-yl)-3-cyclopropyl-2-methylpropanoic Acid]
0.812 nM	CCC(c1cc(Cl)ccc1OC(F)(F)F)N1CCC2(CCc3ccc([C@H](C4CC4)[C@H](C)C(=O)O)cc3O2)CC1 (stereo partly drawn) [Example 110, (2S,3R)-3-(1′-(1-(5-chloro-2-(trifluoromethoxy)phenyl)propyl)spiro[chroman-2,4′-piperidin]-7-yl)-3-cyclopropyl-2-methylpropanoic Acid]
17 nM	C[C@H](C(=O)O)[C@H](c1ccc2c(c1)OC1(CC2)CC(N(C)[C@H](C)c2cc(C(F)(F)F)ccc2C(F)(F)F)C1)C1CC1 (some centres unmarked) [Example 101]
30.4 nM	CC(c1cc(C#N)ccc1OC(F)(F)F)N1CCC2(CCc3ccc([C@H](C4CC4)[C@H](C)C(=O)O)cc3O2)CC1 (stereo partly drawn) [Example 123, (2S,3R)-3-(1′-(1-(5-cyano-2-(trifluoromethoxy)phenyl)ethyl)spiro[chroman-2,4′-piperidin]-7-yl)-3-cyclopropyl-2-methylpropanoic Acid]
0.416 nM	C[C@H](C(=O)O)[C@H](c1ccc2c(c1)OC1(CC2)CCC(N(C)c2ncccc2C(F)(F)F)CC1)C1CC1 (single isomer, unassigned) [Example 69]
11.7 nM	C[C@H](C(=O)O)[C@H](c1ccc2c(c1)OC1(CC2)CCN(Cc2cc(C3CC3)ccc2OC(F)(F)F)CC1)C1CC1 [Example 76, (2S,3R)-3-cyclopropyl-3-(1′-(5-cyclopropyl-2-(trifluoromethoxy)benzyl)spiro[chroman-2,4′-piperidin]-7-yl)-2-methylpropanoic Acid]
798 nM	C[C@H](C(=O)O)[C@H](c1ccc2c(c1)OC1(CC2)[C@@H]2CC[C@H]1CN([C@H](C)c1cc(C(F)(F)F)ccc1C(F)(F)F)C2)C1CC1 (single isomer, unassigned) [Example 83]
48.6 nM	C[C@H](C(=O)O)[C@H](c1ccc2c(c1)OC1(CC2)CC(NCc2cc(C(F)(F)F)ccc2C(F)(F)F)C1)C1CC1 (single isomer, unassigned) [Example 95]
17.3 nM	C[C@H](C(=O)O)[C@H](c1ccc2c(c1)OC1(CC2)CCN(Cc2cc(C#N)ccc2C(F)(F)F)CC1)C1CC1 [Example 60, (2S,3R)-3-(1′-(5-cyano-2-(trifluoromethyl)benzyl)spiro[chroman-2,4′-piperidin]-7-yl)-3-cyclopropyl-2-methylpropanoic Acid]
2.62 nM	C[C@H](NC1CC2(CCc3ccc([C@H](C4CC4)[C@H](C)C(=O)O)cc3O2)C1)c1cc(C(F)(F)F)ccc1C(F)(F)F (single isomer, unassigned) [Example 94]
7.59 nM	COc1cc(N2CCC3(CCc4ccc([C@H](C5CC5)[C@H](C)C(=O)O)cc4O3)CC2)c(Cl)cn1 [Example 55, (2S,3R)-3-(1′-(5-chloro-2-methoxypyridin-4-yl)spiro[chroman-2,4′-piperidin]-7-yl)-3-cyclopropyl-2-methylpropanoic Acid]
28 nM	C[C@H](C(=O)O)[C@H](c1ccc2c(c1)OC1(CC2)CCC(Nc2ncccc2C(F)(F)F)CC1)C1CC1 (single isomer, unassigned) [Example 65]

Same assay, conditions: Human IP1 EC50 (nM), HEK cells stably expressing human GPR40; CisBio IP-One kit; 60 minutes at 37 degrees

EC50	SMILES
15.8 nM	CC(c1cc(C(F)(F)F)cc(Cl)c1F)N1CCC2(CCc3ccc([C@H](C4CC4)[C@H](C)C(=O)O)cc3O2)CC1 (single isomer, unassigned) [Example 108, (2S,3R)-3-(1′-((R or S)-1-(3-chloro-2-fluoro-5-(trifluoromethyl)phenyl)ethyl)spiro-[chroman-2,4′-piperidin]-7-yl)-3-cyclopropyl-2-methylpropanoic Acid]
